Test results taken from paper PMC5128747, “Biscogniauxone, a New Isopyrrolonaphthoquinone Compound from the Fungus Biscogniauxia mediterranea Isolated from Deep-Sea Sediments” (Marine Drugs, 2016).
Values after ≈ are worked out from the molar mass of the structure shown. Values joined by “and” are separate entries in the source; they are usually repeats but may differ in a detail not shown here. Identical values can stand only once. Like-named read-outs stand apart in the source and are kept apart here. Where a SMILES comes first, the peptide text is derived from it.

Legend:
[1] = target: T1, glycogen synthase kinase (GSK-3β) (Homo sapiens, UniProt P49841); assay: Inhibition of glycogen synthase kinase (GSK-3β); format: biochemical; settings: concentrations 0.1 μM to 50 μM analyzed twice in duplicates
Method: (§1) The phytopathogenic fungus Septoria tritici and the dermatophytic fungus Trichophyton rubrum as well as the cytotoxic effect on the human hepatocellular liver carcinoma cell line HepG2 were tested according to Jansen et al.. Inhibition of the enzymes glycogen synthase kinase (GSK-3β), acetylcholinesterase (AchE), phosphodiesterase (PDE-4B2), and protein tyrosine phosphatase (PTP1B) was determined according to Baki et al., Ohlendorf et al., Schulz et al., and Silber et al., respectively. The concentration of the compounds used in the initial bioassays was 100 μM (antibiotic tests), 50 μM (cytotoxic tests), and 10 μM (enzymatic tests).

[2] = test system: methicillin-resistant Staphylococcus aureus (MRSA) (DSM 18827); assay: Antibacterial growth inhibition, MRSA; format: cell-based; settings: very weak inhibition, in the range of
[3] = test system: Staphylococcus epidermidis (DSM 20044); assay: Antibacterial growth inhibition, Staphylococcus epidermidis; format: cell-based; settings: DSM20044, very weak inhibition, in the range of
Method: as §1, with “The antimicrobial activities of compounds 1 and 2 against the bacteria Bacillus subtilis as well as the human pathogenic yeast Candida albicans (DSM 1386) were determined according to Ohlendorf et al.. The bioassays with the clinically relevant bacterial strains Staphylococcus epidermidis (DSM 20044), methicillin-resistant Staphylococcus aureus (MRSA) (DSM 18827), and the causative agent of acne, Propionibacterium acnes (DSM 1897^T), were performed as described by Silber et al.. The phytopathogenic” for “The phytopathogenic”, “(enzymatic tests). […]” for “(enzymatic tests).”

[4] = target: T1, glycogen synthase kinase (GSK-3β); design: method as in PMID 24045329; settings: read-out: IC50, inhibition of GSK-3β; cited from earlier work
[5] = target: acetylcholinesterase (AchE) (Homo sapiens, UniProt P22303); assay: Inhibition of acetylcholinesterase (AchE); format: biochemical
Method: as §1

Trichophyton rubrum = assay: Antifungal growth inhibition, Trichophyton rubrum; format: cell-based; settings: in the same concentration range (IC50 in the range of 100 μM)
Method: as §1, with “The antimicrobial activities of compounds 1 and 2 against the bacteria Bacillus subtilis as well as the human pathogenic yeast Candida albicans (DSM 1386) were determined according to Ohlendorf et al.. The bioassays with the clinically relevant bacterial strains Staphylococcus epidermidis (DSM 20044), methicillin-resistant Staphylococcus aureus (MRSA) (DSM 18827), and the causative agent of acne, Propionibacterium acnes (DSM 1897^T), were performed as described by Silber et al.. The phytopathogenic” for “The phytopathogenic”, “(enzymatic tests). […]” for “(enzymatic tests).”

Septoria tritici = assay: Antifungal growth inhibition, Septoria tritici; format: cell-based; settings: in the same concentration range (IC50 in the range of 100 μM)
Method: as §1, with “The antimicrobial activities of compounds 1 and 2 against the bacteria Bacillus subtilis as well as the human pathogenic yeast Candida albicans (DSM 1386) were determined according to Ohlendorf et al.. The bioassays with the clinically relevant bacterial strains Staphylococcus epidermidis (DSM 20044), methicillin-resistant Staphylococcus aureus (MRSA) (DSM 18827), and the causative agent of acne, Propionibacterium acnes (DSM 1897^T), were performed as described by Silber et al.. The phytopathogenic” for “The phytopathogenic”, “(enzymatic tests). […]” for “(enzymatic tests).”

T1 sequence (P49841 whole entry): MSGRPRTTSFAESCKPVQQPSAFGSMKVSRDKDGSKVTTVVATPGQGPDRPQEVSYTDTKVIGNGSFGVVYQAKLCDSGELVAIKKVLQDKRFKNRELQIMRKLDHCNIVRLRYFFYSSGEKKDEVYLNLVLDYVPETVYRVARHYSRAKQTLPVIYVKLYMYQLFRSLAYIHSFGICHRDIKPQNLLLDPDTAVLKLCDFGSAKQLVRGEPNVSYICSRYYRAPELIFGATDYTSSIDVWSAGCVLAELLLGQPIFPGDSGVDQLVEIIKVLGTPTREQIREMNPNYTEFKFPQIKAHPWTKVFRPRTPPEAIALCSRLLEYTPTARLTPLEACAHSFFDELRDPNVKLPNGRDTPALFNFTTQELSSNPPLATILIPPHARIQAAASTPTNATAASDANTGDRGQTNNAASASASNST
acetylcholinesterase (AchE), sequence (P22303 32-614): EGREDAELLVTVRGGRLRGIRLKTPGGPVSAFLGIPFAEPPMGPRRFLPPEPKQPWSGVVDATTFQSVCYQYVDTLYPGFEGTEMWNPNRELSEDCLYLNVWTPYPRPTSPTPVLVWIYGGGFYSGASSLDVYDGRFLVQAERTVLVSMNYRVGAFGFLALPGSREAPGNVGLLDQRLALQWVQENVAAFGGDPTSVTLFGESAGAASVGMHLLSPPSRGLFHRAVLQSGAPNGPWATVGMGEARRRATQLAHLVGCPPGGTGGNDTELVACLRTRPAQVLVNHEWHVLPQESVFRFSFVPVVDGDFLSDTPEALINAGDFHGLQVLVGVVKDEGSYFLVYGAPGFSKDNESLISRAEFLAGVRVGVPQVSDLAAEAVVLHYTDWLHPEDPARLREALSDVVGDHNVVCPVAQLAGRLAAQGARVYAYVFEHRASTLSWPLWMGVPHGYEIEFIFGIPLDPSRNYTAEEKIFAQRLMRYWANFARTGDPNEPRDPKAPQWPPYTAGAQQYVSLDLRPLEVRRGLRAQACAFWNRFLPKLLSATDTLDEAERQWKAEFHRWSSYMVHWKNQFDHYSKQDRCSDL

In the case of O=C1c2c[nH]cc2C(=O)c2c(O)cc(O)cc21 [Compound 1, biscogniauxone], the IC50 [1] is reported as 8.04 µM and 8 µM, the IC50 [2] is reported as ~100 µM and the IC50 [3] is reported as ~100 µM.

In the case of bhimamycin H, the IC50 [4] is given as 18 µM.

With CC(C)C[C@@H]1NC(=O)[C@H](CC(C)C)NC(=O)[C@H](C(C)C)NC(=O)[C@H](CC(C)C)NC(=O)[C@H](Cc2ccccc2)NC1=O [Compound 3, cyclo-(L-Phe-L-Leu-L-Val-L-Leu-L-Leu)] (cyclo(FLVLL)) the “minimal inhibition concentration (MIC), inhibitory effect on AchE” value [5] was 5.87 µM (≈ 3.44 µg/mL).

With COc1cc(O)c2c(c1C)C[C@H](C)OC2=O [Compound 2, 6-methoxy-5-methyl mellein] the “inhibition of Trichophyton rubrum” value (Trichophyton rubrum) was “weakly inhibited” and the “inhibition of Septoria tritici” value (Septoria tritici) was “weakly inhibited”.
